Measurements as given in patent publication US20250161273A1, “PHARMACEUTICAL COMPOSITION COMPRISING DIPHENYLDIAZOLE DERIVATIVES AND METHODS OF USE” (MODAG GMBH, priority 2022, published 2025).
Like-named read-outs stand apart in the source and are kept apart here.

Experiments:
[1] = phase 1 first-in-human trial, food effect study (FES) PK; format: in vivo; conditions: for AUC(0-t) / Cmax / half-life / Tmax: 150 mg; for half-life: read-out: T1/2 (geometric mean) (converted)
Procedure: Anle138b was studied in a single-centre, double-blind, randomised, placebo-controlled single ascending dose (SAD) and multiple ascending dose (MAD) study in healthy subjects. Eligible participants were randomly assigned (1:1 for sentinel subjects and 1:5 for main group) to placebo or anle138b (dose ranging from 50 mg to 300 mg per day), respectively. In addition, the effect of food on the pharmacokinetics (PK) of anle138b in healthy subjects was examined at doses of 150 mg per day (FES, food effect study). Participants were randomized to treatment sequence (fed→fasted) or (fasted→fed). Treatment for the SAD, MAD and FES arms of the study was administered orally in hard gelatin capsules containing either 10 mg or 30 mg of anle138b with excipient (i.e., lauroyl polyoxyl-32 glycerides) or excipient only. The primary endpoints were safety and tolerability, the secondary endpoint was pharmacokinetics. Data from all randomized individuals were evaluated. [Clinicaltrials.gov-identifier: NCT04208152. EudraCT-number: 2019-004218-33]
This dose was administered either i) after a standard FDA-approved high-fat breakfast or ii) in the fasted state, i.e., fasted from all food and drink (except water) for a minimum of 8 h prior to dosing. In total, one cohort of 12 subjects was randomised in a 1:1 ratio to 2 treatment sequences (fed→fasted) or (fasted→fed). A minimum washout of at least 5 half-lives of anle138b between each dose was assured.
Secondary outcome measures were the oral PK of single (SAD) and multiple (MAD) ascending doses of anle138b in the fasted state as well as the effect of co-administration with food on the PK of anle138b. To this end PK blood samples were taken at day 1 (and for MAD day 7) pre-dose and at 0.5, 1, 1.5, 2, 3, 4, 6, 8, 10, 12, 16 and 20 h post-administration, at days 2 to 6 pre-dose only (MAD) and 24, 30, 36 and 48 h post final dose. Analysis of anle138b in plasma was done at Aptuit. Time point of last quantifiable data was seen to increase with an increase in dose as follows: SAD: from the 50 mg dose (subjects ranged between 8-24 h) to the 300 mg dose (subjects ranged between 36-48 h). MAD: from the 100 mg dose (subjects ranged between 8-36 h) to the 300 mg dose (subjects ranged between 20-48 h). In FES, subjects ranged between 24-48 h.
where μ=[…] is the intercept and β is the slope from the linear model. Using this model it is possible to estimate β (measure of dose proportionality) and obtain 90% confidence interval (CI) for β (Gough, 1995; Smith, 2000). The estimate of β together with its 90% CI (βI, βu) was used to quantify the degree of non-proportionality. In MAD, formal statistical analysis was performed on the PK parameters AUC0-tau and Cmax to assess dose accumulation. Log-transformed AUC0-tau and Cmax was subjected to a mixed-effects model with treatment (dose level), day (day 1 or 7) and treatment-by-day interaction as fixed effects and subject as a random effect. The adjusted means obtained from the model, including differences for each comparison of interest and the associated 90% CIs, was back-transformed on the log scale to obtain adjusted geometric means, adjusted geometric mean ratios (GMRs) and 90% CIs of the ratio. The GMRs and 90% CIs were provided for each treatment and overall, i.e., day 7/day 1. In the FES, formal statistical analysis was performed on the PK parameters Cmax, AUC0-last and AUC0-24 to assess the effects of food on anle138b. The PK parameters underwent a natural logarithmic transformation and were analysed using a mixed-effect model with terms for treatment (i.e., prandial state), period and sequence as fixed effects and subject nested within sequence as a random effect. Adjusted GMRs and 90% CIs for the adjusted GMRs for the comparison between fed and fasted states were provided where the ratios are defined as fed/fasted.

oligomer accumulation = conditions: range of different mouse models; cited from earlier work
[2] = animal studies, cited from earlier work

Which “effect of food on Cmax (in words)” value ([1]; 150 mg single dose, fed vs fasted) does the source give for `Brc1cccc(-c2cc(-c3ccc4c(c3)OCO4)n[nH]2)c1` [anle138b, 3-(1,3-benzodioxol-5-yl)-5-(3-bromophenyl)-1H-pyrazole] here?
Its value is “decreased by about half”.

And the AUC(0-t) ([1]; human, plasma, oral, 150 mg single dose, fasted, read-out: AUC0-24 range)?
Its AUC(0-t) is 0.433 to 2.72 µg·h/mL.

And the Cmax ([1]; human, plasma, oral, 150 mg single dose, fasted, read-out: Cmax range)?
Its Cmax is 0.225 to 1.42 µg/mL.

What about the AUC(0-t) ([1]; human, plasma, oral, 150 mg single dose, fed, read-out: AUC0-24 range) of the same compound?
Its AUC(0-t) is 0.378 to 1.92 µg·h/mL.

What about the Cmax ([1]; human, plasma, oral, 150 mg single dose, fed, read-out: Cmax range) of the same compound?
Its Cmax is 0.11 to 0.479 µg/mL.

And the bioavailability ([1]; human, plasma, oral, 150 mg single dose, 90% CI: 61%, 84%, read-out: dose bioavailable in the fed state compared to the fasted state)?
Its bioavailability is about 74%.

What about the AUC(0-t) ([1]; human, plasma, po, healthy volunteers, single oral 150 mg, fasted, read-out: AUC(0-24) (geometric mean)) of the same compound?
The AUC(0-t) was about 0.896 µg·h/mL.

What about the AUC(0-t) ([1]; human, plasma, po, healthy volunteers, single oral 150 mg, fasted, read-out: AUC(0-last) (geometric mean)) of the same compound?
Its AUC(0-t) is 0.888 µg·h/mL.

And the Cmax ([1]; human, plasma, po, healthy volunteers, single oral 150 mg, fasted, read-out: Cmax (geometric mean))?
The Cmax was about 0.442 µg/mL.

What about the half-life ([1]; human, plasma, po, healthy volunteers, single oral 150 mg, fasted) of the same compound?
The half-life was 11.3 h.

And the Tmax ([1]; human, plasma, po, healthy volunteers, single oral 150 mg, fasted, read-out: Tmax (median))?
Its Tmax is 1.25 h.

And the Tmax ([1]; human, plasma, po, healthy volunteers, single oral 150 mg, fasted, read-out: Tmax (range))?
Its Tmax is 1 to 2 h.

What about the Tmax ([1]; human, plasma, po, healthy volunteers, single oral 150 mg, fed (high-fat breakfast), read-out: Tmax (median)) of the same compound?
Its Tmax is 3 h.

And the Tmax ([1]; human, plasma, po, healthy volunteers, single oral 150 mg, fed (high-fat breakfast), read-out: Tmax (range))?
Its Tmax is 1.5 to 3 h.

What about the AUC(0-t) ([1]; human, plasma, po, healthy volunteers, single oral 150 mg, fed, read-out: AUC(0-24) (geometric mean)) of the same compound?
Its AUC(0-t) is about 0.641 µg·h/mL.

What about the AUC(0-t) ([1]; human, plasma, po, healthy volunteers, single oral 150 mg, fed, read-out: AUC(0-last) (geometric mean)) of the same compound?
Its AUC(0-t) is 0.668 µg·h/mL.

And the Cmax ([1]; human, plasma, po, healthy volunteers, single oral 150 mg, fed, read-out: Cmax (geometric mean))?
The Cmax was about 0.196 µg/mL.

What about the half-life ([1]; human, plasma, po, healthy volunteers, single oral 150 mg, fed) of the same compound?
The half-life was 15.2 h.

And the “ratio of fasted AUC(0-24) to fed AUC(0-24)” value ([1]; single dose, healthy subject)?
Its value is “less than 1.5”.

And the “effect in mouse models in vivo (in words)” value (oligomer accumulation)?
Its value is “strongly inhibited oligomer accumulation, neuronal degeneration, and disease progression”.

And the “oral bioavailability (in words)” value [2]?
The value was “high oral bioavailability”.

And the “levels in the brain relative to plasma” value ([2]; oral)?
Its value is 5 fold.
